These results are taken from ChEMBL document CHEMBL5500375, “Design, synthesis, and evaluation of N1,N3-dialkyldioxonaphthoimidazoliums as antibacterial agents against methicillin-resistant Staphylococcus aureus” (Eur J Med Chem, 2024).

Calls of active or inactive are those of the source. The calls are words filed in the database; no cut-off is given here.

In one data set the test system is Pseudomonas aeruginosa. The data set can be described thus: Antibacterial agents against gram negative Pseudomonas aeruginosa PA14 assessed as reduction in colony forming unit at 0.05 to 0.2 ug/ml measured upto 10 hrs by LB agar medium method. The data set is classed as functional, organism-based. Particulars: dose 0.05-0.2 µg/ml.
In the next data set the test system is Escherichia coli. The data set can be described thus: Antibacterial agents against gram negative Escherichia coli MG1655 assessed as reduction in colony forming unit at 0.05 to 0.2 ug/ml measured upto 10 hrs by LB agar medium method. The following applies: dose 0.05-0.2 µg/ml. Format: functional, organism-based.
For another data set, the system named is Bacillus subtilis. The data set can be described thus: Antibacterial agents against Bacillus subtilis PS380 assessed as absence of growth measured after 18 hrs by micro-dilution method. The data set is classed as functional.
Data set [1] has as its system Staphylococcus aureus. The data set can be described thus: Induction of ROS generation in methicillin-resistant Staphylococcus aureus USA300 using hydroxyphenyl fluorescein at 0.09 ug/ml under anaerobic condition. The following applies: dose 0.09 µg/ml, TDE = time-dependent effect. Format: functional, organism-based.
Data set [2] deals with Staphylococcus aureus. The data set can be described thus: Reduction in virulent activity of methicillin-resistant Staphylococcus aureus SA3 infected in dorsal thorax of Drosophila melanogaster strain Oregon R at 0.2 mg/ml measured upto 72 hrs. Format: functional, organism-based.
For data set [3], the system named is Staphylococcus aureus. The data set can be described thus: In vivo antibacterial activity against methicillin-resistant Staphylococcus aureus SA3 infected in dorsal thorax of Drosophila melanogaster strain Oregon R assessed as median survival time of Drosophila at 0.04 to 0.2 mg/ml measured upto 72 hrs. The data set is classed as functional. Particulars: dose 0.04-0.2 mg/ml.

In data set [4] the test system is Staphylococcus aureus. The data set can be described thus: Antibacterial agents against c5-resistant mutant of methicillin-resistant Staphylococcus aureus SA3 m1 assessed as absence of growth measured after 18 hrs by micro-dilution method. The data set is classed as functional. (In general: Broth dilution looks for growth in wells or tubes with falling amounts of substance.)

Data set [5] has as its system Staphylococcus aureus. The data set can be described thus: Antibacterial agents against methicillin-resistant Staphylococcus aureus USA300 assessed as absence of growth measured after 18 hrs by micro-dilution method. Format: functional.
Data set [6] has as its system Staphylococcus aureus. The data set can be described thus: Antibacterial agents against methicillin-sensitive Staphylococcus aureus SA1 assessed as absence of growth measured after 18 hrs by micro-dilution method. Format: functional.
For data set [7], the system named is Staphylococcus aureus. The data set can be described thus: Antibacterial agents against c5-resistant mutant of methicillin-resistant Staphylococcus aureus SA3 m4 assessed as absence of growth measured after 18 hrs by micro-dilution method. The data set is classed as functional.
For data set [8], the system named is Staphylococcus aureus. The data set can be described thus: In vivo antibacterial activity against methicillin-resistant Staphylococcus aureus SA3 infected in dorsal thorax of Drosophila melanogaster strain Oregon R assessed as survival time of Drosophila at 0.2 mg/ml measured upto 72 hrs. The data set is classed as functional.
Data set [9] deals with Staphylococcus aureus. The data set can be described thus: Induction of ROS generation in methicillin-resistant Staphylococcus aureus SA3 using hydroxyphenyl fluorescein at 0.09 ug/ml under anaerobic condition. Format: functional, organism-based. Particulars: dose 0.09 µg/ml, TDE = time-dependent effect.
Data set [10] relates to Staphylococcus aureus. The data set can be described thus: Antibacterial agents against methicillin-resistant Staphylococcus aureus SA3 assessed as absence of growth measured after 18 hrs by micro-dilution method. The data set is classed as functional.
Data set [11] has as its system Staphylococcus aureus. The data set can be described thus: Antibacterial agents against c5-resistant mutant of methicillin-resistant Staphylococcus aureus SA3 m2 assessed as absence of growth measured after 18 hrs by micro-dilution method. Format: functional.
Data set [12] concerns Staphylococcus aureus. The data set can be described thus: Antibacterial agents against methicillin-sensitive Staphylococcus aureus Newman assessed as absence of growth measured after 18 hrs by micro-dilution method. The data set is classed as functional.
The nature of data set [13]: Metabolic stability in human liver microsomes assessed as half life at 2 uM preincubated for 5 mins followed by NADPH addition and measured for 35 mins by LC/MS analysis. The following applies: preincubation 5 min. The data set is classed as ADME, Microsome. In general terms: Microsomes from liver hold many membrane-bound enzymes, among them those of drug oxidation.

Data set [14] deals with Staphylococcus aureus. The data set can be described thus: Antibacterial agents against c5-resistant mutant of methicillin-resistant Staphylococcus aureus SA3 m3 assessed as absence of growth measured after 18 hrs by micro-dilution method. The data set is classed as functional.
The nature of data set [15]: Metabolic stability in human liver microsomes assessed as intrinsic clearance at 2 uM preincubated for 5 mins followed by NADPH addition and measured for 35 mins by LC/MS analysis. Format: ADME, Microsome. The following applies: read-out: CLH.

As to POLYMYXIN B, the result in the data set with Pseudomonas aeruginosa and in the data set on Escherichia coli was inactive.

In general, MIC refers to the lowest concentration that inhibits growth of the organism. What is called half-life is the time in which the quantity being followed falls by half. As to `CCCCCC[n+]1c2c(n(CCOC)c1C)C(=O)c1ccccc1C2=O.[Br-]`, the MIC was 6.25 µg/mL in the data set with Bacillus subtilis; over 50 µg/mL in the data set on Staphylococcus aureus [4]; 6.25 µg/mL in the data set on Staphylococcus aureus [5]; 6.25 µg/mL in the data set on Staphylococcus aureus [6]; over 50 µg/mL in the data set with Staphylococcus aureus [7]; 6.25 µg/mL in the data set with Staphylococcus aureus [10]. Also, the MIC in the data set on Staphylococcus aureus [11] was over 50 µg/mL; in the data set with Staphylococcus aureus [12], 6.25 µg/mL; in the data set with Staphylococcus aureus [14] it was over 50 µg/mL. Also, the Activity result in the data set with Staphylococcus aureus [1] and in the data set on Staphylococcus aureus [9] was “Tde” each time. In the data set with Staphylococcus aureus [2], the outcome was inactive. Also, the values for the Time in the data set with Staphylococcus aureus [3] and in the data set on Staphylococcus aureus [8] were 38 h and 54 h, respectively. Moreover, the half-life at 2 µM in data set [13] is 33.7 min. Besides, the CLint scaled at 2 µM in data set [15] worked out at 37 mL/min/kg.
